Data taken from US20240317772A1, “SESQUITERPENE DERIVATIVE AND PHARMACEUTICAL COMPOSITION THEREOF, AND THEIR PREPARATION METHODS AND USE” (TIANJIN JIKUN MEDICAL TECHNOLOGY CO., LTD., priority 2022, published 2024).

Assays:
Assay type in all cases: in vivo
Tumor cells LLC = assay: Anti-tumor effect in LLC tumor-bearing mice (alone and combined with PD-1 monoclonal antibody); conditions: female Balb/c mice; by tumor weight vs control group; compounds 150 mg/kg orally every day; PD-1 monoclonal antibody 10 mg/kg intraperitoneally every three days; combination: both
Excerpt: (§1) Tumor cells B16F10, LLC, PAN02, H22, CT26, MFC, and GL261 (purchased from Biological Industries) in good growth status were collected, separately washed twice with 1×PBS, and a total number of the cells was counted with a cell counter, and a cell solution was separately diluted with 1×PBS to obtain a cell suspension of 1×10^7 cells/mL. The mice used in this experiment were purchased from Beijing Vital River Laboratory (Beijing, China). The above different types of tumor cells were inoculated into different types of mice to produce corresponding tumor-bearing mice, and the correspondences are as follows. Tumor cell B16F10 corresponds to female mice C57BL/6 aged 6-8 weeks; Tumor cell LLC corresponds to female mice Balb/c aged 6-8 weeks; Tumor cell PAN02 corresponds to female mice C57BL/6J aged 6-8 weeks; Tumor cell H22 corresponds to female mice C57BL/6 aged 6-8 weeks; Tumor cell CT26 corresponds to female mice Balb/c aged 6-8 weeks; Tumor cell MFC corresponds to female mice BALB/c-nu/nu aged 6-8 weeks; and Tumor cell GL261 corresponds to female mice C57BL/6 aged 6-8 weeks. […] After the experiment was completed, the mice were euthanized, tumor tissues thereof were collected, and volume and weight of the tumor tissues were tested to calculate a tumor inhibition rate. Tumor inhibition rate=(1-tumor weight of treatment group/tumor weight of control group)×100%

Tumor cells CT26 = assay: Anti-tumor effect in CT26 tumor-bearing mice (alone and combined with PD-1 monoclonal antibody); conditions: female Balb/c mice; by tumor weight vs control group; compounds 150 mg/kg orally every day; PD-1 monoclonal antibody 10 mg/kg intraperitoneally every three days; combination: both
Excerpt: as §1

Tumor cells B16F10 = assay: Anti-tumor effect in B16F10 tumor-bearing mice (alone and combined with PD-1 monoclonal antibody); conditions: female C57BL/6 mice; by tumor weight vs control group; compounds 150 mg/kg orally every day; PD-1 monoclonal antibody 10 mg/kg intraperitoneally every three days; combination: both
Excerpt: as §1

Tumor cells PAN02 = assay: Anti-tumor effect in PAN02 tumor-bearing mice (alone and combined with PD-1 monoclonal antibody); conditions: for Tumor inhibition rate PAN02: female C57BL/6J mice, by tumor weight vs control group, compounds 150 mg/kg orally every day, PD-1 monoclonal antibody 10 mg/kg intraperitoneally every three days, combination: both
Excerpt: as §1

Tumor cells MFC = assay: Anti-tumor effect in MFC tumor-bearing mice (alone and combined with PD-1 monoclonal antibody); conditions: female BALB/c-nu/nu mice; by tumor weight vs control group; compounds 150 mg/kg orally every day; PD-1 monoclonal antibody 10 mg/kg intraperitoneally every three days; combination: both
Excerpt: as §1

Tumor cells GL261 = assay: Anti-tumor effect in GL261 tumor-bearing mice (alone and combined with PD-1 monoclonal antibody); conditions: for Tumor inhibition rate GL261: female C57BL/6 mice, by tumor weight vs control group, compounds 150 mg/kg orally every day, PD-1 monoclonal antibody 10 mg/kg intraperitoneally every three days, combination: both
Excerpt: as §1

Tumor cells H22 = assay: Anti-tumor effect in H22 tumor-bearing mice (alone and combined with PD-1 monoclonal antibody); conditions: female C57BL/6 mice; by tumor weight vs control group; compounds 150 mg/kg orally every day; PD-1 monoclonal antibody 10 mg/kg intraperitoneally every three days; combination: both
Excerpt: as §1

[1] = combined administration with the PD-1 monoclonal antibody (text summary of Table 1)

SMILES: CN(CCO)CC1C(=O)O[C@@H]2C[C@@]3(C)CC[C@@H](O)[C@]4(CO4)[C@@H]3C[C@H]12.O=C(O)/C=C/C(=O)O (stereo partly drawn) [Compound 4]
- Tumor inhibition rate LLC (Tumor cells LLC): 24%
- Tumor inhibition rate CT26 (Tumor cells CT26): 31%
- Tumor inhibition rate B16F10 (Tumor cells B16F10): 23%
- Tumor inhibition rate PAN02 (Tumor cells PAN02): 22%
- Tumor inhibition rate MFC (Tumor cells MFC): 27%
- Tumor inhibition rate GL261 (Tumor cells GL261): 23%
- Tumor inhibition rate H22 (Tumor cells H22): 26%

SMILES: C[C@]12CC[C@@H](O)[C@]3(CO3)[C@@H]1C[C@@H]1C(CN(CCO)CCO)C(=O)O[C@@H]1C2.O=C(O)/C=C/C(=O)O (stereo partly drawn) [Compound 5]
- Tumor inhibition rate LLC (Tumor cells LLC): 26%
- Tumor inhibition rate CT26 (Tumor cells CT26): 52%
- Tumor inhibition rate B16F10 (Tumor cells B16F10): 24%
- Tumor inhibition rate PAN02 (Tumor cells PAN02): 19%
- Tumor inhibition rate MFC (Tumor cells MFC): 44%
- Tumor inhibition rate GL261 (Tumor cells GL261): 19%
- Tumor inhibition rate H22 (Tumor cells H22): 31%

SMILES: CN(CCCO)CC1C(=O)O[C@@H]2C[C@@]3(C)CC[C@@H](O)[C@]4(CO4)[C@@H]3C[C@H]12.O=C(O)/C=C/C(=O)O (stereo partly drawn) [Compound 6]
- Tumor inhibition rate LLC (Tumor cells LLC): 29%
- Tumor inhibition rate CT26 (Tumor cells CT26): 41%
- Tumor inhibition rate B16F10 (Tumor cells B16F10): 31%
- tumor inhibition rate, PAN02 cells (Tumor cells PAN02; [1]): up to 89%
- Tumor inhibition rate PAN02 (Tumor cells PAN02): 31%
- Tumor inhibition rate MFC (Tumor cells MFC): 52%
- tumor inhibition rate, GL261 cells (Tumor cells GL261; [1]): up to 89%
- Tumor inhibition rate GL261 (Tumor cells GL261): 29%
- Tumor inhibition rate H22 (Tumor cells H22): 39%

SMILES: CN(C)CC1C(=O)O[C@@H]2C[C@@]3(C)CC[C@@H](O)[C@]4(CO4)[C@@H]3C[C@H]12.O=C(O)/C=C/C(=O)O (stereo partly drawn) [Control compound 7, reference compound]
- Tumor inhibition rate LLC (Tumor cells LLC): 44%
- Tumor inhibition rate CT26 (Tumor cells CT26): 60%
- Tumor inhibition rate B16F10 (Tumor cells B16F10): 41%
- Tumor inhibition rate PAN02 (Tumor cells PAN02): 43%
- Tumor inhibition rate MFC (Tumor cells MFC): 38%
- Tumor inhibition rate GL261 (Tumor cells GL261): 39%
- Tumor inhibition rate H22 (Tumor cells H22): 52%
